Values after ≈ are worked out from the molar mass of the structure shown.
Tests used:
[1] = system: Bel-7402; experiment: Growth inhibition of sensitive and drug-resistant cell lines (IC50), Bel-7402; type: cell-based; settings: Homo sapiens; Bel-7402 cells, Table 1
Experimental: (§1) In the following Examples, the cell lines used were H1299, H446 (human lung cancer cell line), KB (human oral cavity carcinoma cell line), NB4, HL-60 (human leukemic cell line), U251 ? U87MG (human glioblastoma cell line), MCF-7 (human breast carcinoma cell line), Bel-7402 and SMMC7721 (human hepatic cellular cancer cell line), SW620 (human colon carcinoma cell line), HDF (human dermis fibroblast), HUVEC (human umbilical vein endothelial cell line) and Kasumi-1 (human acute myeloid leukaemia cell line), all from American Type Culture Collection (ATCC).
(§2) The human lung cancer cell H1299 and H446, glioma cell U251 and U87MG, and human hepatic cellular cancer Bel-7402 cell in logarithmic growth phase were digested with pancreatic enzyme, and then suspended into DMEM or RPMI1640 containing 10% fetal bovine serum. The leukemic cells Kasumi-1 need no digestion, and were suspended into RPMI1640 containing 10% fetal bovine serum directly after centrifugalization. The cell density was adjusted to 1×10^4 cells/ml through cell counting, and the cell suspensions were seeded into a 96-well plate respectively, 100 μl/well, totally 6 groups of cells. The adherent cells were cultured overnight, the suspended cells were added different concentration gradients of dimeric phthalide compounds (S1-S6) directly, n=6 for each concentration of a single agent. The final volume was 200 ul, and the balance was supplemented with the culture medium. The plate was then incubated for 68 hours in 37° C., saturated humidity, 5% CO2 cell incubator. The medium was aspirated and 72 μl/well fresh culture medium was added. 8 μl […] (CCK-8) was added into each well and cultured for 2 hours. The absorbance was measured at 450 nm. The results were calculated as the 50% inhibiting drug concentration, i.e. IC50, using Sigmoidal simulation function by software Origin 7.0.
(§3) The cancer cells (various cell lines as shown in table 1 or FIG. 3) were seeded 1×10^3 cells per well into a 96-well plate. The suspended cells were added different concentration of dimeric phthalide compounds (S1-S6) directly, and the adherent cells were cultured overnight and added different concentration of dimeric phthalide compounds (S1-S6). The different concentration of dimeric phthalide compounds were divided into 10 groups: 0, 0.1, 0.5, 1, 5, 10, 20, 40, 80, 160 μg/ml, n=6 for each concentration.
(§4) According to the method described in Example 2, […] was detected and IC50 was calculated. The experiment was repeated for 3 times.
(§5) The growth inhibition effects of dimers of S1-S6 on its sensitive cell lines as well as the drug-resistant sub-strains (IC50 (μg/ml)) were shown in table 1 and FIG. 3.

[2] = system: HUVEC; experiment: Vascular endothelial cell inhibition assay (CCK-8), HUVEC; type: cell-based; settings: Homo sapiens, 72 h
Experimental: (§6) 2×10^3 cells were seeded into a 96-well plate and cultured for 24 h. S1-S6 of different concentrations (0, 0.01, 0.1, 0.5, 1, 2.5, 5, 10, 20, 40, 80, 160 μg/ml, respectively) were added and incubated for 72 h, n=6 for each concentration. The inhibition of cell proliferation was detected by CCK-8 assay, the results were calculated as IC50, as describe in Example 3.

[3] = system: MCF-7; experiment: Growth inhibition of sensitive and drug-resistant cell lines (IC50), MCF-7; type: cell-based; settings: Homo sapiens, MCF7; MCF-7 cells
Experimental: as §1, §2, §3, §4, §5

[4] = system: KB; experiment: Growth inhibition of sensitive and drug-resistant cell lines (IC50), KB; type: cell-based; settings: Homo sapiens; KB cells, Table 1
Experimental: as §1, §2, §3, §4, §5

[5] = system: SMMC-7721; experiment: Growth inhibition of sensitive and drug-resistant cell lines (IC50), SMMC-7721; type: cell-based; settings: Homo sapiens; SMMC-7721 cells
Experimental: as §1, §2, §3, §4, §5

[6] = system: MCF-7/Adr; experiment: Growth inhibition of sensitive and drug-resistant cell lines (IC50), MCF-7/Adr; type: cell-based; settings: Homo sapiens, NCI/ADR-RES; MCF-7/Adr drug-resistant cells
From the text: (§7) HL-60/ADR, MCF-7/ADR, K562/ADR, Bel-7402/5-FU, KBV200, SMMC-7721/Adr were respectively chemotherapeutics Adriamycin (ADR), 5-Fluorouracil (5-FU) or vincristine (VCR) drug-resistant sub-stains of HL-60, MCF-7, K562, Bel-7402, KB, SMMC-7721 cells (all from Chinese Academy of Medical Sciences). NB4-R2 was all trans-retinoic acid (ATRA) drug-resistant sub-stain (from Pathophysiology Research Department of Shanghai JiaoTong University). The main drug-resistance mechanism of K562/ADR was high expression of P-glycoprotein (P-gp), along with increased expression of Bcl-2. In addition to high expression of P-gp, the drug-resistance mechanism of MCF-7/ADR also related to the high expression of Breast Cancer Resistant Protein (BCRP). The main drug-resistance mechanism of HL-60/ADR was high expression of Multidrug Resistance Protein 1 (MRP1), along with high expression of Bcl-2, Bcl-xL. […] The main drug-resistance mechanism of KBV200 was high expression of P-gp and its increased activity. The drug-resistance mechanism of NB4-R2 on ATRA was mutation in the RAR gene locus.
as §2, §3, §4, §5

[7] = system: Bel-7402; experiment: Vascular endothelial cell inhibition assay (CCK-8), Bel-7402; type: cell-based; settings: Homo sapiens, 72 h, CCK-8, Table 2
Experimental: as §6

[8] = system: HDF; experiment: Vascular endothelial cell inhibition assay (CCK-8), HDF; type: cell-based; settings: Homo sapiens, 72 h
Experimental: as §6

[9] = system: K562/Adr; experiment: Growth inhibition of sensitive and drug-resistant cell lines (IC50), K562/Adr; type: cell-based; settings: Homo sapiens; K562/Adr drug-resistant cells
From the text: as §7, §2, §3, §4, §5

[10] = system: secretion of VEGF in H1299 cell; experiment: VEGF in supernatant of tumor cell H1299 culture (VEGF-ELISA); type: cell-based, human; settings: H1299, compound 5 μg/ml, 24 h; for inhibition at 5 µg/mL: Homo sapiens, NCI-H1299, read-out: Inhibition rate of VEGF secretion
Experimental: Assay of vascular endothelial cell growth factor (VEGF) in supernatant of tumor cell H1299 culture. The cell was seeded into a 24-well plate (n=3 for each sample). H1299 cell was treated with S1-S6 respectively and cultured for 24 h. The culture supernatants from each group were collected and operated according to the instruction of VEGF-ELISA kit (JIN MEI Corporation). The samples were added, incubated, washed and detected at 450 nm for OD values of each sample. The standard curve was obtained by using different dose of VEGF standards and the secretory volume of VEGF in the supernatant was calculated.

[11] = system: K562; experiment: Growth inhibition of sensitive and drug-resistant cell lines (IC50), K562; type: cell-based; settings: Homo sapiens; K562 cells
Experimental: as §2, §3, §4, §5

[12] = system: SMMC-7721/Adr; experiment: Growth inhibition of sensitive and drug-resistant cell lines (IC50), SMMC-7721/Adr; type: cell-based; settings: Homo sapiens; SMMC-7721/Adr drug-resistant cells
From the text: as §7, §2, §3, §4, §5

[13] = system: KB; experiment: Vascular endothelial cell inhibition assay (CCK-8), KB; type: cell-based; settings: Homo sapiens, 72 h, CCK-8, Table 2
Experimental: as §6

[14] = system: Bel-7402/5-Fu; experiment: Growth inhibition of sensitive and drug-resistant cell lines (IC50), Bel-7402/5-Fu; type: cell-based; settings: Homo sapiens, Bel7402/5-FU; Bel-7402/5-Fu drug-resistant cells
From the text: as §7, §2, §3, §4, §5

[15] = system: KBv200; experiment: Growth inhibition of sensitive and drug-resistant cell lines (IC50), KBv200; type: cell-based; settings: Homo sapiens; KBv200 drug-resistant cells
From the text: as §7, §2, §3, §4, §5

[16] = system: U87MG, H1299 and HL-60 heterograft tumors; experiment: Inhibition of the growth of nude mouse heterograft tumors; type: in vivo, Balb/c male nude mice; settings: FIG. 9
Experimental: Experimental grouping: Balb/c male nude mice were used, each weighted 18-22 g, and three assays were performed. The mice were seeded with U87MG, H1299 and HL-60 respectively. The animals were divided into three groups for each experiment, one as control, one was administered with the dimeric phthalide compounds, and one was administered with monomers of phthalide compound, 6 animals for each group.
For the group which was administered with monomers of phthalide compound, we used n-butylidenephthalide (BP) (Sigma) as active ingredient for tumor suppression, the compound had the structure as follows:
Experimental Process The H1299, HL-60 or U87MG cells growing in logarithmic phase were used. […] When the tumors had gown into 0.1-0.5 cm^3 (about 7-10 days), the animals were intraperitoneal injected with the dimeric phthalide compound S4 (25 mg/kg), S6 (30 mg/kg), S1 (32 mg/kg), each 200 μl; for the group of monomers of phthalide compound, the mice were intraperitoneal injected with n-butylidenephthalide (250 mg/kg); the control group was administered with equal volume of vehicle. The animals were sacrificed after 4 weeks, and the subcutaneous tumors were separated. Photographs were taken (FIG. 9A) and the tumors were weighted (FIG. 9B).

IC50 [1] [µg/mL] | IC50 [3] [µg/mL] | IC50 [4] [µg/mL] | IC50 [5] [µg/mL] | IC50 [6] [µg/mL] | IC50 [7] [µg/mL] | IC50 [9] [µg/mL] | IC50 [11] [µg/mL] | IC50 [12] [µg/mL] | IC50 [13] [µg/mL] | IC50 [14] [µg/mL] | SMILES | IC50 [2] [µg/mL] | IC50 [8] [µg/mL] | Supernatant VEGF [10] [ng/ml/10^6 cells] | inhibition at 5 µg/mL [10] [%] | IC50 [15] [µg/mL] | dose needed to reach similar effects compared with the dimeric phthalide compound [16] [folds] | tumor inhibition effect ([16]; intraperitoneal, S4 25 mg/kg, S6 30 mg/kg, S1 32 mg/kg, BP 250 mg/kg, 4 weeks)
28.1 ± 3.96 (≈ 70.9 µM) | 32.1 ± 3.21 (≈ 81 µM) | 19 ± 1.91 (≈ 48 µM) | 25.4 ± 2 (≈ 64.1 µM) | 34 ± 3.06 (≈ 85.7 µM) | 44.3 (≈ 112 µM) | 19.2 ± 1.71 (≈ 48.3 µM) | 17.4 ± 2.06 (≈ 44 µM) | 26.7 ± 2.6 (≈ 67.3 µM) | 18.9 (≈ 47.7 µM) | 29.3 ± 2.3 (≈ 74 µM) | CCC/C=C1\OC(=O)C2=C1CCC1[C@H]2C23C=CCC[C@@H]2C1(C(=O)CCC)OC3=O (single isomer, unassigned) [S3] | 5.99 (≈ 15.1 µM) | 98.7 (≈ 249 µM) | 268.7 ± 36.13 | 28 | 20.4 ± 2.6 (≈ 51.6 µM) |  | 
 |  |  |  |  |  |  |  |  |  |  | CCC/C=C1\OC(=O)c2ccccc21 [BP, n-butylidenephthalide, reference compound] |  |  |  |  |  | ≥ 10 | some inhibition effects
27.9 ± 2.54 (≈ 73.6 µM) | 25.6 ± 2.01 (≈ 67.7 µM) | 15.8 ± 1.25 (≈ 41.7 µM) | 37.9 ± 2 (≈ 100 µM) | 29.4 ± 2.8 (≈ 77.8 µM) | 25.6 (≈ 67.7 µM) | 20.4 ± 1.53 (≈ 54 µM) | 18.4 ± 1.02 (≈ 48.7 µM) | 38.3 ± 1.87 (≈ 101 µM) | 37.8 (≈ 99.9 µM) | 29.7 ± 1.99 (≈ 78.4 µM) | CCC/C=C1\OC(=O)C2=C1CCC1C2C2(OC(=O)c3ccccc32)[C@@H]1CCC (stereo partly shown) [S2] | 4.76 (≈ 12.6 µM) | 83.2 (≈ 220 µM) | 245.71 ± 34.27 | 34.2 | 16.4 ± 1.98 (≈ 43.2 µM) |  | 
